Data taken from PubChem BioAssay AID504655 (Southern Research Specialized Biocontainment Screening …, 2011).
The source made the active and inactive calls. No rule for the calls is given here.

Test system: HEp-2 cells, RSV CPE inhibition, cell viability
Assay: protection of HEp-2 cells from RSV – synthesized compounds, set 7, dose response (AID 504655)

Structure (SMILES) | IC50
Cc1ccc(Cn2c(=O)n(Cc3ccc(C(=O)Nc4ccccc4)cc3)c(=O)c3ccccc32)cc1 | > 50 µM (inactive)
COCCCNC(=O)c1ccc(Cn2c(=O)c3ccc(C)cc3n(Cc3ccc(C)cc3)c2=O)cc1 | > 50 µM (inactive)
Cc1ccc(Cn2c(=O)n(Cc3ccc(C(=O)N(C)C)cc3)c(=O)c3ccccc32)cc1 | > 50 µM (inactive)
COCCCNC(=O)c1ccc(Cn2c(=O)c3ccc(C(F)(F)F)cc3n(Cc3ccc(C)cc3)c2=O)cc1 | > 50 µM (inactive)
CNC(=O)c1ccc(Cn2c(=O)c3ccccc3n(Cc3ccc(C)cc3)c2=O)cc1 | 2.26 µM
COc1ccccc1NC(=O)[C@@H]1CCCN1S(=O)(=O)c1cccc2nonc12 | > 50 µM (inactive)
COc1ccc(C)c(NC(=O)[C@@H]2CCCN2S(=O)(=O)c2cccc3cccnc23)c1 | 9.33 µM
Cc1ccc(Cn2c(=O)n(Cc3ccc(C(=O)NCc4ccccc4)cc3)c(=O)c3ccccc32)cc1 | > 50 µM (inactive)
Cc1ccc(Cn2c(=O)n(Cc3ccc(C(=O)NC4CCCCC4)cc3)c(=O)c3ccccc32)cc1 | > 50 µM (inactive)
Cc1ccc(Cn2c(=O)n(Cc3ccc(C(=O)N4CCOCC4)cc3)c(=O)c3ccccc32)cc1 | > 50 µM (inactive)
O=C(NCc1cccc(Cl)c1)C1CCN(S(=O)(=O)c2cccc3nonc23)CC1 | > 50 µM (inactive)
Cc1ccc(Cl)cc1NC(=O)[C@@H]1CCCN1S(=O)(=O)c1cccc2cccnc12 | 6.11 µM
Cc1ccc(Cn2c(=O)n(Cc3ccc(C(=O)N4CCCCC4)cc3)c(=O)c3ccccc32)cc1 | > 50 µM (inactive)
COCCNC(=O)c1ccc(Cn2c(=O)c3ccccc3n(Cc3ccc(C)cc3)c2=O)cc1 | 3.05 µM
COCCCNC(=O)c1ccc(Cn2c(=O)c3ccc(OC)cc3n(Cc3ccc(C)cc3)c2=O)cc1 | > 50 µM (inactive)
Cc1ccc(CNC(=O)C2CCN(S(=O)(=O)c3cccc4nonc34)CC2)c(C)c1 | > 50 µM (inactive)
O=C(NCc1ccc(Cl)cc1)C1CCN(S(=O)(=O)c2cccc3nonc23)CC1 | > 50 µM (inactive)
Cc1ccc(Cn2c(=O)n(Cc3ccc(C(=O)N4CCCC4)cc3)c(=O)c3ccccc32)cc1 | > 50 µM (inactive)
Cc1ccc(NC(=O)[C@@H]2CCCN2S(=O)(=O)c2cccc3nonc23)c(C)c1 | > 50 µM (inactive)
COc1ccccc1CNC(=O)[C@@H]1CCCN1S(=O)(=O)c1cccc2nonc12 | > 50 µM (inactive)
